Measurements as given in ChEMBL document CHEMBL1201862, “PubChem BioAssay data set” (2004).
Calls of active or inactive are those of the source.

Key:
[1] = Luminescence Cell-Based Dose Retest to Confirm Inhibitors of Cancer Stem Cells. [Related pubchem assays (depositor defined):AID2717, AID2721]; format: functional; settings: Homo sapiens
[2] = target: T1, Ubiquitin-conjugating enzyme E2 N (Homo sapiens, UniProt P61088); format: functional;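 further: Dose-response confirmation in a TR-FRET assay detecting UBC13-driven polyubiquitin chain formation, inhibition measured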
T1 sequence (P61088 whole entry): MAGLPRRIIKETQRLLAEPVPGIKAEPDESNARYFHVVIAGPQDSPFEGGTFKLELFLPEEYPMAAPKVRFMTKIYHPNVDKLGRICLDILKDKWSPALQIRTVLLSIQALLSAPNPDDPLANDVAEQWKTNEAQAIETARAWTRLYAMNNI

[3] = target: T2, Replicative DNA helicase DnaB (Mycobacterium tuberculosis, UniProt P9WMR3); assay: DnaB intein splicing inhibitors, dose response, biochemical, cell-free fluorescence (AID 449749); format: functional
T2 sequence (P9WMR3 whole entry): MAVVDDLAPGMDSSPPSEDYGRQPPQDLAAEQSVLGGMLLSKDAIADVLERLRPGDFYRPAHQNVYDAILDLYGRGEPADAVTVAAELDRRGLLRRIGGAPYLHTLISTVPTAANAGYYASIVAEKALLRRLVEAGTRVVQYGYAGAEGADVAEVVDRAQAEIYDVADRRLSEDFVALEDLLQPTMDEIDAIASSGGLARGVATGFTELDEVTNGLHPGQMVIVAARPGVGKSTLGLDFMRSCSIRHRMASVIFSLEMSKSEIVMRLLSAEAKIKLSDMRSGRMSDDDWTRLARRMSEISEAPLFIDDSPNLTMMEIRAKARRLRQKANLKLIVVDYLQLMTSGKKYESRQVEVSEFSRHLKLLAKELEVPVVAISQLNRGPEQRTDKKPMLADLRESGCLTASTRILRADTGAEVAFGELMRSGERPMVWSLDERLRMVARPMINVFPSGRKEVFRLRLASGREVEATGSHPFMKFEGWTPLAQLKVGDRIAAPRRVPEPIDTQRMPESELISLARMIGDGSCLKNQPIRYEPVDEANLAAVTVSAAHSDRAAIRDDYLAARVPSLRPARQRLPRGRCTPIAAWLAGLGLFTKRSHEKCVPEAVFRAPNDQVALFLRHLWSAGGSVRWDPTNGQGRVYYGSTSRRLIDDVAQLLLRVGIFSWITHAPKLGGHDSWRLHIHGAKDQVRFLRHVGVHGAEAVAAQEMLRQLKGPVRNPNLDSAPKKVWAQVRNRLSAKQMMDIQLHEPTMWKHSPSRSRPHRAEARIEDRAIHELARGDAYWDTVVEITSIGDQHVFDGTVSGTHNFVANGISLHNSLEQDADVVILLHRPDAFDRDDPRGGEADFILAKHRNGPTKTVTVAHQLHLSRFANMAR

Protein RecA = target: T3, Protein RecA (Mycobacterium tuberculosis, UniProt P9WHJ3); assay: Fluorescence Cell-Free Homogeneous Dose Retest to Identify Inhibitors of RecA-Intein Splicing Activity. [Related pubchem assays (depositor defined):AID2097, AID2223, AID489010, AID492950]; format: functional
T3 sequence (P9WHJ3 whole entry): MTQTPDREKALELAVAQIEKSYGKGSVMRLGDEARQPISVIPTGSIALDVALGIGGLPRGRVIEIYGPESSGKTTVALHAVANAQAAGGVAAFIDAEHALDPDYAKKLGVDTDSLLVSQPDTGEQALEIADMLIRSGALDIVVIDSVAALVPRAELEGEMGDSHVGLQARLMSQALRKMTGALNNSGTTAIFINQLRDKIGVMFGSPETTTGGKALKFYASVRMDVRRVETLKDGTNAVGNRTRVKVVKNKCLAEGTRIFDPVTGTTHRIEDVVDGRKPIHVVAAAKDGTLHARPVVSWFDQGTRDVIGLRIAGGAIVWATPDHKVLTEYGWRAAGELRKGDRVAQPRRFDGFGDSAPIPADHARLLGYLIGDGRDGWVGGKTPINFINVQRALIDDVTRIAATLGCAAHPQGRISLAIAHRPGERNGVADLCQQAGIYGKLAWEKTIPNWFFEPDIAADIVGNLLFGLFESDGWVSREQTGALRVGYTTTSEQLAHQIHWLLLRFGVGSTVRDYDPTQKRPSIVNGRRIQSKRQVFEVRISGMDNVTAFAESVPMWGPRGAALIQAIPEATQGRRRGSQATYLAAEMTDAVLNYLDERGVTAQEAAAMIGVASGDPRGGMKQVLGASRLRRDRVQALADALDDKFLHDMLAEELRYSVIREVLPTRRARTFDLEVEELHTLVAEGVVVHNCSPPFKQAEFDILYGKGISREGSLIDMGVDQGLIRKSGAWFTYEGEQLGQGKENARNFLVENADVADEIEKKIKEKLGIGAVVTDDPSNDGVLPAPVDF

[4] = target: T4, Hepatocyte nuclear factor 4-alpha (Homo sapiens, UniProt P41235); format: functional, cell-based;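 further: biochemical luminescence-based dose-response counterscreen measuring inhibition of HNF4 dimerization, run alongside a screen for blockers of ABHD5–perilipin-5 interaction; split luciferase complementation of HNF4 fusion proteins in cell lysate measuring dimerization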
T4 sequence (P41235 whole entry): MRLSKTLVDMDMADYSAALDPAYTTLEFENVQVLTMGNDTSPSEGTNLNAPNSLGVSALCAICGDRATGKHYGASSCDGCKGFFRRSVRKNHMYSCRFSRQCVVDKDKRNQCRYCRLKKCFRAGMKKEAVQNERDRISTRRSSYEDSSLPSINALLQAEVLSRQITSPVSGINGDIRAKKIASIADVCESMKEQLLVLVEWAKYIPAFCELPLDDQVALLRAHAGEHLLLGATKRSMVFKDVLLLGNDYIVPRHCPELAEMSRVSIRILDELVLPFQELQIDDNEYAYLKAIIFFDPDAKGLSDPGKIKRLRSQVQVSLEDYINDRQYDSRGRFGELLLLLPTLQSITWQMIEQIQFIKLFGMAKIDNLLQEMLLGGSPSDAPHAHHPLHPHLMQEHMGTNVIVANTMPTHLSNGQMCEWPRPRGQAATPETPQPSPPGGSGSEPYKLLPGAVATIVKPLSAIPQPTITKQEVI

Cytochrome P450 2C9 = Cytochrome P450 2C9 (Homo sapiens, UniProt P11712)
Sequence of Cytochrome P450 2C9 (P11712 whole entry): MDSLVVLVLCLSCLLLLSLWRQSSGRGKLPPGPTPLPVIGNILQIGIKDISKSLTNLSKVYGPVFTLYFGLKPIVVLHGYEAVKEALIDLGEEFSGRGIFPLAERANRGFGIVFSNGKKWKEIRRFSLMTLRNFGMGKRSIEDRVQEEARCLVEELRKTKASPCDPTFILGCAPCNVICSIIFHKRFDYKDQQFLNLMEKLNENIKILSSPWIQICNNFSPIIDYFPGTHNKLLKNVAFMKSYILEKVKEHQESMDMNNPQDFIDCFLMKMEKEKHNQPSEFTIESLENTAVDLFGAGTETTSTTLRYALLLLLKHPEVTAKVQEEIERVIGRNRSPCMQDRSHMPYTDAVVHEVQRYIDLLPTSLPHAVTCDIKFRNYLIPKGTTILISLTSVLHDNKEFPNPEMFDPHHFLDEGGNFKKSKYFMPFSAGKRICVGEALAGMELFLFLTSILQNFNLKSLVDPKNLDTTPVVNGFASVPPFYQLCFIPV

Beta-galactosidase = Beta-galactosidase (Escherichia coli, UniProt Q8VNN2); assay: PubChem AID 485352; format: functional
Sequence of Beta-galactosidase (Q8VNN2 whole entry): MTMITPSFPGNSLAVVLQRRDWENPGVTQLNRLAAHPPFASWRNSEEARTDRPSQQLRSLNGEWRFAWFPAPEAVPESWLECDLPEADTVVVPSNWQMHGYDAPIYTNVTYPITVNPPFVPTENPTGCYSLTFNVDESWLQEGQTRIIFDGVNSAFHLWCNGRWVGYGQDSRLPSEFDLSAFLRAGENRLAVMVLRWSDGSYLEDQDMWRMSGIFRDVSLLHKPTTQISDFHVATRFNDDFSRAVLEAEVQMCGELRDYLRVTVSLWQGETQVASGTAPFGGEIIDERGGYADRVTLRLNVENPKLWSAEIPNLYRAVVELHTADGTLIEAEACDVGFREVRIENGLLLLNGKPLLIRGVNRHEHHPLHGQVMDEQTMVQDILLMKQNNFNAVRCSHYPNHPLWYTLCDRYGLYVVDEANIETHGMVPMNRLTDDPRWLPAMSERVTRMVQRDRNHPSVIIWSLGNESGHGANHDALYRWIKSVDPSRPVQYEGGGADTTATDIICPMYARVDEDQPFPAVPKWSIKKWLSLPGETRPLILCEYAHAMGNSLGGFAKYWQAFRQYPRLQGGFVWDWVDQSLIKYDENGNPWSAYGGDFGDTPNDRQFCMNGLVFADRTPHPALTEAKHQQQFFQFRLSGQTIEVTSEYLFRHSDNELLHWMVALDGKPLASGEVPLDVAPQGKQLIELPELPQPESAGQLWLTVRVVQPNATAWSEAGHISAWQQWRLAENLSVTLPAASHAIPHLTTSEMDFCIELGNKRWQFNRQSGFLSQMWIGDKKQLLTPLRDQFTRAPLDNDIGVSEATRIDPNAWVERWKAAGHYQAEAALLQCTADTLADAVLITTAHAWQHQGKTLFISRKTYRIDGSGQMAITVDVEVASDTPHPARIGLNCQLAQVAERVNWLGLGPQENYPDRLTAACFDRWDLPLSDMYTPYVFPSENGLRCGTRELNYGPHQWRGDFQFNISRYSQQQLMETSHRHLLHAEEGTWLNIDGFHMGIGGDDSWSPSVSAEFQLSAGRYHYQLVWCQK

[5] = target: T5, Type-1 angiotensin II receptor (Homo sapiens, UniProt P30556); assay: antagonism of angiotensin II type 1 receptor – cell-based, uHTS hits, selectivity assay for APJ receptor antagonist project, dose response (AID 463214); format: functional;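 further: antagonist potency against angiotensin II stimulated AT1 response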
T5 sequence (P30556 whole entry): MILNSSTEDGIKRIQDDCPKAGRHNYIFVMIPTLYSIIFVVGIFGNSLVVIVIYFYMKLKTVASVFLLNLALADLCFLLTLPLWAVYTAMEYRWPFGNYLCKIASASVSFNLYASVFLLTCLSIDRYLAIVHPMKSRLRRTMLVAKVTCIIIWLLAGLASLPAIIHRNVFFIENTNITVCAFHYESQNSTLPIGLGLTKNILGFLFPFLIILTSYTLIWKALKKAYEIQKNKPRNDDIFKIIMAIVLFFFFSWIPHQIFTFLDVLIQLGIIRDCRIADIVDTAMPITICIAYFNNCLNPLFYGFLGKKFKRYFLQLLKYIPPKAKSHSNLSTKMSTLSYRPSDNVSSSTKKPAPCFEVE

[6] = target: T6, Carboxy-terminal domain RNA polymerase II polypeptide A small phosphatase 1 (Homo sapiens, UniProt Q9GZU7); assay: CTDSP1 inhibitors, concentration-response, biochemical, absorbance readout, ultra-high-throughput screen actives (AID 540297); format: functional
T6 sequence (Q9GZU7 whole entry): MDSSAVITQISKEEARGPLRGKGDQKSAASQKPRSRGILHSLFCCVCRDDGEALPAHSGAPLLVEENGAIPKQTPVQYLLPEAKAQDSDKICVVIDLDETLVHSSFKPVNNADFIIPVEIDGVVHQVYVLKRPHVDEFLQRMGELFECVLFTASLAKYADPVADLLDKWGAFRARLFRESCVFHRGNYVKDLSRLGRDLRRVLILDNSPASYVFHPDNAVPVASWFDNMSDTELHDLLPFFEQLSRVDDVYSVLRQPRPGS

[7] = target: T7, Low molecular weight phosphotyrosine protein phosphatase (Homo sapiens, UniProt P24666); format: functional; settings: read-out: IC50_Mean
T7 sequence (P24666 whole entry): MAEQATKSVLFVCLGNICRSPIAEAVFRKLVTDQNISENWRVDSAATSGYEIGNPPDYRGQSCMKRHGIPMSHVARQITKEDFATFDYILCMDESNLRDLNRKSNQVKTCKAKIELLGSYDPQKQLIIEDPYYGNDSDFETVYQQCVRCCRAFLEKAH

[8] = target: T7, Low molecular weight phosphotyrosine protein phosphatase; format: functional; settings: read-out: IC50_Mean; remark: listed apart in the source
[9] = activation of miR-122 Renilla sensor silencing – cell-based, Huh7 psiCHECK-miR122, Renilla luciferase, cherry-picked, dose response (AID 651956); format: functional;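 further: huh7 hepatoma cells stably carrying a psiCHECK-2 miR-122 sensor plasmid; renilla luciferase signal reporting endogenous miR-122 activity after 48 h compound exposure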
Fatty acid synthase [10] = target: T8, Fatty acid synthase (Homo sapiens, UniProt P49327); assay: inhibition of human FAS-TE enzyme activity – biochemical, endpoint fluorescence intensity, uHTS hits, dose response (AID 624327); format: functional;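 further: fluorescence from hydrolysis of an O-methyl fluorescein acyl ester substrate by the enzyme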
T8 sequence (P49327 whole entry): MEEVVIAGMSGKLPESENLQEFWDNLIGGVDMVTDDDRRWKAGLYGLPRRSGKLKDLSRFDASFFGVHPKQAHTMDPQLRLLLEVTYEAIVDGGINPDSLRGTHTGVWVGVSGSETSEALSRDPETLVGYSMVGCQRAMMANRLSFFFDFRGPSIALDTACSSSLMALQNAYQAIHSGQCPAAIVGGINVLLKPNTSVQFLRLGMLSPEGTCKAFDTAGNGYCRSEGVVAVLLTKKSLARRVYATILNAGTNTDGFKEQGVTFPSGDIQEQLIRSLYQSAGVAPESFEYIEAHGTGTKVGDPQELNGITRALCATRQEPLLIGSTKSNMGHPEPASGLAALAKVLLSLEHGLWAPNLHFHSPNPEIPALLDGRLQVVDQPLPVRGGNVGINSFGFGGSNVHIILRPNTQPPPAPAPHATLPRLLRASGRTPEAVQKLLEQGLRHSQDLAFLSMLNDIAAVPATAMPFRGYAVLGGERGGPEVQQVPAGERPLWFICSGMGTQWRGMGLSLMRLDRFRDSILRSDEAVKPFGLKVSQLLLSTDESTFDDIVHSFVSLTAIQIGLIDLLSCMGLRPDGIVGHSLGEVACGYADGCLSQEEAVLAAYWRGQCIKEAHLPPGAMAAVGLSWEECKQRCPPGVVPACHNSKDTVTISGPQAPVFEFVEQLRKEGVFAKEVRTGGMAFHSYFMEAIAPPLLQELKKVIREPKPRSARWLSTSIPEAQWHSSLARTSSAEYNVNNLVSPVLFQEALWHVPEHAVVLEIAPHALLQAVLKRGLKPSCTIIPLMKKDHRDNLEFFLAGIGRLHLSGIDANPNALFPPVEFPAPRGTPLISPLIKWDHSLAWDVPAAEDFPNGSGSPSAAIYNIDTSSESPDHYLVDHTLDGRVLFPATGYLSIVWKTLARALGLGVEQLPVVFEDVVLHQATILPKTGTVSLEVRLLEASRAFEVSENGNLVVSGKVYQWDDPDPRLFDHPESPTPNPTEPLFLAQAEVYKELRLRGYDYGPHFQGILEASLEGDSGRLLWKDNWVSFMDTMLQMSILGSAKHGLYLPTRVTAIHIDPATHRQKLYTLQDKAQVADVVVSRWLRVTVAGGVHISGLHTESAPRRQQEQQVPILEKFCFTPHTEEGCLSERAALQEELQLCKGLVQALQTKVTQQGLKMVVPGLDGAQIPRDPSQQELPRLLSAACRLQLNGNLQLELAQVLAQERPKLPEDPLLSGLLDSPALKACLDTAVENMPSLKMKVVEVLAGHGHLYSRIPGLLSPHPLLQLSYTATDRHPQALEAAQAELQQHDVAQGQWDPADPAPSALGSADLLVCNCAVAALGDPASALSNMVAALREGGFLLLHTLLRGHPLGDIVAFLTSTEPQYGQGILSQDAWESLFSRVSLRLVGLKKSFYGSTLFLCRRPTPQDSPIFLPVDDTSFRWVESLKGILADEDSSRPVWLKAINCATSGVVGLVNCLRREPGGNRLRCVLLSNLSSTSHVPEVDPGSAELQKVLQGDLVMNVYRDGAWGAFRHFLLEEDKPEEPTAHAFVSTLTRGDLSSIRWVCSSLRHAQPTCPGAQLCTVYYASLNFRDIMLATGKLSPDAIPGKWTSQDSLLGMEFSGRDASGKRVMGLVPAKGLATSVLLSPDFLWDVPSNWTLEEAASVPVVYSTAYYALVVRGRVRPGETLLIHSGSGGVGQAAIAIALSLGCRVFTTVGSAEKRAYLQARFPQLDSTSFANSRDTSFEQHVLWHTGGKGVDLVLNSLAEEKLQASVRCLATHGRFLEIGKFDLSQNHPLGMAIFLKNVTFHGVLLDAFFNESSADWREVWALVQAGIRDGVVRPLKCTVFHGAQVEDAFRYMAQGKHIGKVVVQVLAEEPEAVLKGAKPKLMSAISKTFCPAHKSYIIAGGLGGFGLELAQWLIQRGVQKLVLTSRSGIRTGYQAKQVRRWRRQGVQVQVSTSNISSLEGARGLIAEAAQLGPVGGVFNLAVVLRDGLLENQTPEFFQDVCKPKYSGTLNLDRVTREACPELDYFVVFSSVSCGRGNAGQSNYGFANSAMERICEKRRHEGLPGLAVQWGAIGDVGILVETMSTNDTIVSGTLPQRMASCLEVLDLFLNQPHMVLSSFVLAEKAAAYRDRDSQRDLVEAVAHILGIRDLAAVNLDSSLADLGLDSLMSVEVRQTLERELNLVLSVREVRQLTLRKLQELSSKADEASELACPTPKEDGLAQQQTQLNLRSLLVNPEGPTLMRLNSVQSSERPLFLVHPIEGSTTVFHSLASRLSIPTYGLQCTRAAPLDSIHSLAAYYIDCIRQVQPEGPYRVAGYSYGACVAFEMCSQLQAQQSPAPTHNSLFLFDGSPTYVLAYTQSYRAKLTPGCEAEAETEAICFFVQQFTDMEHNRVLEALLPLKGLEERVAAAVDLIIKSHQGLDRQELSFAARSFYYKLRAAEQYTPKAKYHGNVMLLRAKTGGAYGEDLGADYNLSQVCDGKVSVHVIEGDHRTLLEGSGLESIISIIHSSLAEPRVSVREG

Fatty acid synthase [11] = target: T8, Fatty acid synthase; assay: inhibition of human FAS-TE enzyme activity – biochemical, kinetic fluorescence intensity, dose response (AID 624326); format: functional;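 further: rate of fluorescence rise from hydrolysis of a fluorogenic O-methyl fluorescein ester substrate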
Leucine aminopeptidase = target: T9, Leucine aminopeptidase (Plasmodium falciparum 3D7, UniProt Q8IL11); assay: P. falciparum M17LAP inhibitors, primary screen, biochemical, fluorogenic H-Leu-NHMec substrate, 1536-well (AID 1619); format: functional
T9 sequence (Q8IL11 whole entry): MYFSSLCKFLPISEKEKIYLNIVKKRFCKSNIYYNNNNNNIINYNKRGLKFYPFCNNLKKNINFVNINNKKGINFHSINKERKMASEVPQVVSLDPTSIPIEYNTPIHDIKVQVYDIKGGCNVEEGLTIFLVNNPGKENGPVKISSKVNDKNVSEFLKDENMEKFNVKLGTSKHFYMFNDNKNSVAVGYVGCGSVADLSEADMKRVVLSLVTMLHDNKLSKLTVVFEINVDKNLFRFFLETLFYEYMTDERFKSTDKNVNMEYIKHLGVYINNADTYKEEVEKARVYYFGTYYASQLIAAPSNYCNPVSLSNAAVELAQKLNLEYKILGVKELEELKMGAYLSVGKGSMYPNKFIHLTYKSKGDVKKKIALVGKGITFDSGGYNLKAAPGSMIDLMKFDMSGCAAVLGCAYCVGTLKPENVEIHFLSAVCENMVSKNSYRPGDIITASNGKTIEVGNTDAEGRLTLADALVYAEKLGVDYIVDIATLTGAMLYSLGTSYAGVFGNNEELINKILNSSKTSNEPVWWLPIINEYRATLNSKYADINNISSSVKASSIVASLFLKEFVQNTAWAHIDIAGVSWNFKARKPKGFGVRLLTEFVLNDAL

[12] = THP-1 cell cytotoxicity, dose response, cytotoxicity control for non-replicating M. tuberculosis project (AID 489025); format: functional
[13] = target: T10, Long-chain-fatty-acid--AMP ligase FadD28 (Mycobacterium tuberculosis, UniProt P9WQ59); assay: Fluorescence polarization aasay to screen for inhibitors that compete for the binding of FadD28 to a bisubstrate Measured in Biochemical System Using Plate Reader - 2147-01_Inhibitor_Dose_CherryPick_Activity.; format: functional, Mycobacterium tuberculosis H37Rv
T10 sequence (P9WQ59 whole entry): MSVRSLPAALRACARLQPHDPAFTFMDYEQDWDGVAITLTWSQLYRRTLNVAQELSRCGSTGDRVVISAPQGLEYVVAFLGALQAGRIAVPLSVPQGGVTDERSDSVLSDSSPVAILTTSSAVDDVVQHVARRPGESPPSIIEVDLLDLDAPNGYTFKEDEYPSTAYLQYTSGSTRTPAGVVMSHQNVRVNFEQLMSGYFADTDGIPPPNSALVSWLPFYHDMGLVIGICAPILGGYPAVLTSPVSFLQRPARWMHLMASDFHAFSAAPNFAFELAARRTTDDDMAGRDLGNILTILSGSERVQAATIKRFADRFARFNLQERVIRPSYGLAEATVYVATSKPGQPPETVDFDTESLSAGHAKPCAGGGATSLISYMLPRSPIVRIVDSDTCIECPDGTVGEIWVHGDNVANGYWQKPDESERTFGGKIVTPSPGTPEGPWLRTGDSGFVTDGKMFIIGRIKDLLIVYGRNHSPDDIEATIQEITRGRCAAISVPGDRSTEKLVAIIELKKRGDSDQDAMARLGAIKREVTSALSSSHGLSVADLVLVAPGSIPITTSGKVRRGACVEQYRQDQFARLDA

SMILES: CCN(CC)CCOc1ccc(/C(=C(\Cl)c2ccccc2)c2ccccc2)cc1.O=C(O)CC(O)(CC(=O)O)C(=O)O [CLOMIPHENE CITRATE]
- AC50 [1]: 0.997 µM (active)
- IC50 [2]: > 20 µM (inactive)
- AC50 [3]: 3.79 µM (active)
- EC50 (Protein RecA): 12.1 µM (active)
- IC50 [4]: 10.8 µM (inactive)
- AC50 (Cytochrome P450 2C9): inconclusive

SMILES: COc1ccc(/C=C/C(=O)NC(=S)Nc2cc([N+](=O)[O-])ccc2O)cc1OC
- EC50 (Beta-galactosidase): > 40 µM (inactive)
- IC50 [5]: > 40 µM (not active)
- IC50 [6]: 4.85 µM (active)
- IC50 [7]: > 80 µM (inactive)
- IC50 [8]: 17.8 µM (active)

SMILES: O=C(c1ccc(CNc2c(NC3CCCCC3)c(=O)c2=O)cc1)N1CCc2ccccc21
- AC50 [9]: 0.583 µM (active)

SMILES: CCNC(=O)C[C@H]1CC[C@@H]2[C@@H](COc3ccc(NC(=O)Nc4cccc(Cl)c4)cc3C(=O)N2C)O1
- AC50 [9]: 42 µM (active)

SMILES: CCCN(CC(=O)Nc1ccc(F)c(F)c1F)C(=O)c1cc([N+](=O)[O-])ccc1N1CCOCC1
- IC50 (Fatty acid synthase [10]): 14.9 µM (active)
- IC50 (Fatty acid synthase [11]): 10.6 µM (active)

SMILES: O=C(COC(=O)c1cc([N+](=O)[O-])ccc1N1CCOCC1)Nc1ncc(Cl)cc1Cl
- IC50 (Fatty acid synthase [10]): 8.79 µM (active)
- IC50 (Fatty acid synthase [11]): 7.24 µM (active)

SMILES: COCC(=O)N(C)C[C@H]1Oc2cc(-c3ccccc3F)ccc2S(=O)(=O)N([C@H](C)CO)C[C@H]1C
- AC50 [9]: 2.56 µM (active)

SMILES: Cc1ccc(NC(=O)CCNS(=O)(=O)c2cc(Br)cnc2N)cc1Cl
- IC50 (Fatty acid synthase [10]): 10.3 µM (active)
- IC50 (Fatty acid synthase [11]): 16.1 µM (active)

SMILES: O=C(Nc1sc2c(c1C(=O)O)CCCCC2)c1ccccc1F
- IC50 (Leucine aminopeptidase): 71 µM (active)
- CC50 [12]: > 40 µM (active)
- AC50 [13]: > 100 µM (inactive)

SMILES: O=C(O)CCCCCNc1nc(-c2ccccc2)nc2ccccc12
- IC50 [7]: 26.9 µM (inactive)
- IC50 [8]: 12 µM (active)
